From the supplement of paper PMC11451515

Columns and labels:
Settings in all cases: 48 h
NOMO1 [1] = test: cell viability relative to DMSO control; higher = less cytotoxic
Outline: (§1)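 Three leukemia lines were tested: NOMO1 and SEM at 500 cells/well and P12-Ichikawa at 1000 cells/well. Each was adapted for at least four passages in each medium and seeded in 5 μl in 1536-well plates, and library compounds in DMSO were pin-dosed from 47 μM to 0.79 nM in 11 threefold steps. After 48 h at 37°C, CellTiter-Glo One luminescence was read. Viability is a percentage relative to DMSO wells on each plate, with cell-free wells as background.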

P12-Ichikawa [2] = test: as above
Outline: as §1

SEM cells [3] = test: as above
Outline: as §1

NOMO1 [4] = test: AUC of viability dose-response curve (% viability x log10 dose units); higher = less sensitive
Outline: (§2)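 Over 48 h at 37°C, leukemia cells in 1536-well plates (500 or 1000 cells/well), adapted to each medium, received library compounds in DMSO at 11 threefold doses from 47 μM to 0.79 nM. CellTiter-Glo One luminescence, normalised per plate to DMSO and cell-free wells, was fitted by a four-parameter log-logistic function of log10 dose. The area under the curve was then integrated by trapezoidal rule, after scaling curves above full viability and removing those that failed quality control.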

P12-Ichikawa [5] = test: as above
Outline: as §2

SEM cells [6] = test: as above
Outline: as §2

COc1ccc2c(c1)[C@]13CCCCC1C(C2)N(C)CC3 (some centres not stated)
cell viability [%]
Settings | NOMO1 [1] | P12-Ichikawa [2] | SEM cells [3]
HPLM + 10% dialyzed FBS, 0.000781 µM | – | 107 | 102
HPLM + 10% dialyzed FBS, 0.00234 µM | – | 118 | 116
HPLM + 10% dialyzed FBS, 0.00702 µM | – | 114 | 113
HPLM + 10% dialyzed FBS, 0.0211 µM | – | 116 | 106
HPLM + 10% dialyzed FBS, 0.0632 µM | – | 116 | 116
HPLM + 10% dialyzed FBS, 0.19 µM | – | 122 | 112
HPLM + 10% dialyzed FBS, 0.569 µM | – | 124 | 103
HPLM + 10% dialyzed FBS, 1.71 µM | – | 126 | 100
HPLM + 10% dialyzed FBS, 5.12 µM | – | 113 | 128
HPLM + 10% dialyzed FBS, 15.4 µM | – | 127 | 111
HPLM + 10% dialyzed FBS, 46.1 µM | – | 117 | 129
RPMI 5 mM glucose + 10% FBS, 0.000781 µM | 104 | 111 | 106
RPMI 5 mM glucose + 10% FBS, 0.00234 µM | 117 | 127 | 105
RPMI 5 mM glucose + 10% FBS, 0.00702 µM | 107 | 119 | 115
RPMI 5 mM glucose + 10% FBS, 0.0211 µM | 121 | 124 | 115
RPMI 5 mM glucose + 10% FBS, 0.0632 µM | 118 | 128 | 111
RPMI 5 mM glucose + 10% FBS, 0.19 µM | 108 | 129 | 126
RPMI 5 mM glucose + 10% FBS, 0.569 µM | 109 | 134 | 110
RPMI 5 mM glucose + 10% FBS, 1.71 µM | 111 | 118 | 113
RPMI 5 mM glucose + 10% FBS, 5.12 µM | 121 | 133 | 126
RPMI 5 mM glucose + 10% FBS, 15.4 µM | 90.3 | 128 | 126
RPMI 5 mM glucose + 10% FBS, 46.1 µM | 101 | 107 | 123
RPMI 5 mM glucose + 10% dialyzed FBS, 0.000781 µM | 111 | 106 | 101
RPMI 5 mM glucose + 10% dialyzed FBS, 0.00234 µM | 114 | 112 | 103
RPMI 5 mM glucose + 10% dialyzed FBS, 0.00702 µM | 116 | 119 | 106
RPMI 5 mM glucose + 10% dialyzed FBS, 0.0211 µM | 119 | 120 | 114
RPMI 5 mM glucose + 10% dialyzed FBS, 0.0632 µM | 135 | 121 | 108
RPMI 5 mM glucose + 10% dialyzed FBS, 0.19 µM | 130 | 117 | 114
RPMI 5 mM glucose + 10% dialyzed FBS, 0.569 µM | 114 | 126 | 118
RPMI 5 mM glucose + 10% dialyzed FBS, 1.71 µM | 132 | 122 | 109
RPMI 5 mM glucose + 10% dialyzed FBS, 5.12 µM | 115 | 119 | 117
RPMI 5 mM glucose + 10% dialyzed FBS, 15.4 µM | 118 | 122 | 108
RPMI 5 mM glucose + 10% dialyzed FBS, 46.1 µM | 84.2 | 20.9 | 114

AUC of viability dose-response curve
Settings | NOMO1 [4] | P12-Ichikawa [5] | SEM cells [6]
HPLM + 10% dialyzed FBS | 468 | 467 | 435
RPMI 5 mM glucose + 10% FBS | 466 | 474 | 443
RPMI 5 mM glucose + 10% dialyzed FBS | 469 | 457 | 467
